Experimental findings from paper PMC10246841, “CCX559 is a potent, orally-administered small molecule PD-L1 inhibitor that induces anti-tumor immunity” (PLOS ONE, 2023) are described below.

In one experiment the target is T1, PD-L1 (Homo sapiens, UniProt Q9NZQ7).
T1 construct: gene CD274; with PD-1 (displaced in the assay); PD-L1 homodimer induced
The experiment can be described thus: plate-based (ELISA-type) PD-1/PD-L1 binding inhibition assay with recombinant proteins; also CD80/PD-L1 inhibition and PathHunter PD-L1 dimerization in U2OS cells.

A further experiment has as its target T2, cynomolgus PD-L1 (Macaca fascicularis, UniProt G7PSE7).
T2 construct: with PD-1 (displaced in the assay)
The experiment can be described thus: in vitro cynomolgus PD-L1/PD-1 interaction inhibition assay (S5 Fig). It is filed as binding.

T2 sequence (G7PSE7 19-238 limits assumed): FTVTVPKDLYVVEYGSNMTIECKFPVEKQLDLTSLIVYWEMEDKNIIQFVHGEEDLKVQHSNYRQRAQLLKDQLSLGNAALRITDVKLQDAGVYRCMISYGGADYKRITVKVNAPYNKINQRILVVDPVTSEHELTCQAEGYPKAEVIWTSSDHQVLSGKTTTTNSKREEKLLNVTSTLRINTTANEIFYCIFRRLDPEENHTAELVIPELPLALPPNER
T1 sequence (Q9NZQ7 19-290): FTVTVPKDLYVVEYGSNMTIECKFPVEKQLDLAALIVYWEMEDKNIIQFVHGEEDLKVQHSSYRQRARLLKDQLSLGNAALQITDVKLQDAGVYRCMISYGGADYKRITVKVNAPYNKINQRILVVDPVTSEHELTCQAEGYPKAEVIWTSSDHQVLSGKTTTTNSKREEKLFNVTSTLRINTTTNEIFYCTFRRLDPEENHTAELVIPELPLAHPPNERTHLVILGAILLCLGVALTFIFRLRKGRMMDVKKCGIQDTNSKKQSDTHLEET

In the case of CCX559, the IC50 – broadly, the concentration needed to halve the response being measured – was found to be 0.47 nM at PD-L1 and 0.21 nM at cynomolgus PD-L1.
